Test results from US8076487B2, “Pyridone derivative and herbicide” (Kumiai Chemical Industry Co., Ltd., priority 2006, dated 2011).

Assays:
Type in all cases: in vivo
[1] = test system: Japanese bulrush (Scirpus juncoides Roxb.); experiment: Test Example 1: herbicidal effect by soil application to paddy field; settings: paddy field soil application; active ingredient 1,000 g per 1 hectare; wettable powder added dropwise to water surface the day after sowing; examined on the 21st day after application
Procedure, shortened: (§1)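 Plants were sown in flooded (3 cm) paddy soil and evaluated for herbicidal effect 21 days after soil application in a greenhouse.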

[2] = test system: early watergrass (Echinochloa oryzicola Vasing); experiment: as above; settings: paddy field soil application; active ingredient 1,000 g per 1 hectare; wettable powder added dropwise to water surface the day after sowing; examined on the 21st day after application
Procedure, shortened: as §1

[3] = test system: heartshape false pickerelweed (Monochoria vaginalis (Burm.f.) C.Presl); experiment: as above; settings: paddy field soil application; active ingredient 1,000 g per 1 hectare; wettable powder added dropwise to water surface the day after sowing; examined on the 21st day after application
Procedure, shortened: as §1

[4] = test system: barnyardgrass (Echinochloa crus-galli (L.) P. Beauv. var. crus-galli); experiment: Test Example 3: herbicidal effect by application to upland field (foliage treatment); settings: 14th day after application; for herbicidal effect, Barnyardgrass: foliage treatment, 1,000 g active ingredient per 1 hectare, greenhouse; for herbicidal effect (index), Barnyardgrass: foliage treatment, plants grown two weeks, 1,000 g active ingredient per hectare
Procedure, shortened: (§2)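 Seeds went into pots of field soil and grew under glass for two weeks. The whole plant was then sprayed from above with diluted wettable powder delivering 1,000 g/ha of active ingredient. Plants stayed in the greenhouse, and injury was graded against a standard 14 days after spraying.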

[5] = test system: green foxtail (Setaria viridis (L.) P. Beauv.); experiment: as above; settings: 14th day after application; for herbicidal effect, Green Foxtail: foliage treatment, 1,000 g active ingredient per 1 hectare, greenhouse; for herbicidal effect (index), Green Foxtail: foliage treatment, plants grown two weeks, 1,000 g active ingredient per hectare
Procedure, shortened: as §2

[6] = test system: slender amaranth (Amaranthus viridis L.); experiment: as above; settings: 14th day after application; for herbicidal effect, Slender Amaranth: foliage treatment, 1,000 g active ingredient per 1 hectare, greenhouse; for herbicidal effect (index), Slender Amaranth: foliage treatment, plants grown two weeks, 1,000 g active ingredient per hectare
Procedure, shortened: as §2

[7] = test system: velvetleaf (Abutilon theophrasti medicus); experiment: as above; settings: 14th day after application; for herbicidal effect, Velvetleaf: foliage treatment, 1,000 g active ingredient per 1 hectare, greenhouse; for herbicidal effect (index), Velvetleaf: foliage treatment, plants grown two weeks, 1,000 g active ingredient per hectare
Procedure, shortened: as §2

Compound	herbicidal effect, Scirpus juncoides Roxb. [1]	herbicidal effect, Echinochloa oryzicola Vasing [2]	herbicidal effect, Monochoria vaginalis (Burm. f.) C. Presl [3]	herbicidal effect, Barnyardgrass [4]	herbicidal effect, Green Foxtail [5]	herbicidal effect, Slender Amaranth [6]	herbicidal effect, Velvetleaf [7]	herbicidal effect (index), Barnyardgrass [4]	herbicidal effect (index), Green Foxtail [5]	herbicidal effect (index), Slender Amaranth [6]	herbicidal effect (index), Velvetleaf [7]
CCN(C(=O)OC(C)(C)C)n1c(C(F)(F)F)ccc(C(=O)C2=C(O)CCCC2=O)c1=O [I-195]	5 (90% or more of herbicidal effect and crop phytotoxicity)	5 (90% or more of herbicidal effect and crop phytotoxicity)	5 (90% or more of herbicidal effect and crop phytotoxicity)	5 (90% or more of herbicidal effect and crop phytotoxicity)	4 (70 to less than 90% of herbicidal effect and crop phytotoxicity)	3 (50 to less than 70% of herbicidal effect and crop phytotoxicity)	5 (90% or more of herbicidal effect and crop phytotoxicity)	–	–	–	–
CSCCCn1c(C(F)(F)F)ccc(C(=O)C2=C(O)CCCC2=O)c1=O [I-69]	5 (90% or more of herbicidal effect and crop phytotoxicity)	5 (90% or more of herbicidal effect and crop phytotoxicity)	5 (90% or more of herbicidal effect and crop phytotoxicity)	–	–	–	–	5 (90% or more of herbicidal effect and crop phytotoxicity)	5 (90% or more of herbicidal effect and crop phytotoxicity)	5 (90% or more of herbicidal effect and crop phytotoxicity)	5 (90% or more of herbicidal effect and crop phytotoxicity)
O=C1CCCC(O)=C1C(=O)c1ccc(C(F)(F)F)n(CSC2CCCCC2)c1=O [I-61]	4 (70 to less than 90% of herbicidal effect and crop phytotoxicity)	5 (90% or more of herbicidal effect and crop phytotoxicity)	5 (90% or more of herbicidal effect and crop phytotoxicity)	–	–	–	–	5 (90% or more of herbicidal effect and crop phytotoxicity)	4 (70 to less than 90% of herbicidal effect and crop phytotoxicity)	5 (90% or more of herbicidal effect and crop phytotoxicity)	5 (90% or more of herbicidal effect and crop phytotoxicity)
Cn1ncc(C(=O)c2ccc(C(F)(F)F)n(CC3CCCO3)c2=O)c1OS(=O)(=O)c1ccc([N+](=O)[O-])cc1 (centres unmarked) [IV-142]	5 (90% or more of herbicidal effect and crop phytotoxicity)	5 (90% or more of herbicidal effect and crop phytotoxicity)	5 (90% or more of herbicidal effect and crop phytotoxicity)	5 (90% or more of herbicidal effect and crop phytotoxicity)	5 (90% or more of herbicidal effect and crop phytotoxicity)	5 (90% or more of herbicidal effect and crop phytotoxicity)	5 (90% or more of herbicidal effect and crop phytotoxicity)	–	–	–	–
CCn1ncc(C(=O)c2ccc(C(F)(F)F)n(C)c2=O)c1OC(C)=O [IV-208]	5 (90% or more of herbicidal effect and crop phytotoxicity)	5 (90% or more of herbicidal effect and crop phytotoxicity)	5 (90% or more of herbicidal effect and crop phytotoxicity)	5 (90% or more of herbicidal effect and crop phytotoxicity)	4 (70 to less than 90% of herbicidal effect and crop phytotoxicity)	5 (90% or more of herbicidal effect and crop phytotoxicity)	5 (90% or more of herbicidal effect and crop phytotoxicity)	–	–	–	–
C=CCn1c(C(F)(F)F)ccc(C(=O)c2cnn(CC)c2OS(=O)(=O)CCC)c1=O [IV-12]	5 (90% or more of herbicidal effect and crop phytotoxicity)	5 (90% or more of herbicidal effect and crop phytotoxicity)	5 (90% or more of herbicidal effect and crop phytotoxicity)	5 (90% or more of herbicidal effect and crop phytotoxicity)	4 (70 to less than 90% of herbicidal effect and crop phytotoxicity)	5 (90% or more of herbicidal effect and crop phytotoxicity)	5 (90% or more of herbicidal effect and crop phytotoxicity)	–	–	–	–
CCn1c(C(F)(F)F)ccc(C(=O)C2=C(O)C3CCC(C3)C2=O)c1=O (centres unmarked) [III-2]	5 (90% or more of herbicidal effect and crop phytotoxicity)	5 (90% or more of herbicidal effect and crop phytotoxicity)	5 (90% or more of herbicidal effect and crop phytotoxicity)	5 (90% or more of herbicidal effect and crop phytotoxicity)	5 (90% or more of herbicidal effect and crop phytotoxicity)	5 (90% or more of herbicidal effect and crop phytotoxicity)	5 (90% or more of herbicidal effect and crop phytotoxicity)	–	–	–	–
CC(Cn1c(C(F)(F)F)ccc(C(=O)C2=C(O)CCCC2=O)c1=O)OCc1ccccc1 (centres unmarked) [I-43]	5 (90% or more of herbicidal effect and crop phytotoxicity)	5 (90% or more of herbicidal effect and crop phytotoxicity)	4 (70 to less than 90% of herbicidal effect and crop phytotoxicity)	–	–	–	–	5 (90% or more of herbicidal effect and crop phytotoxicity)	4 (70 to less than 90% of herbicidal effect and crop phytotoxicity)	5 (90% or more of herbicidal effect and crop phytotoxicity)	5 (90% or more of herbicidal effect and crop phytotoxicity)
Cn1ncc(C(=O)c2ccc(C(F)(F)F)n(CC3CCCO3)c2=O)c1OCc1c(F)cccc1F (centres unmarked) [IV-136]	5 (90% or more of herbicidal effect and crop phytotoxicity)	5 (90% or more of herbicidal effect and crop phytotoxicity)	5 (90% or more of herbicidal effect and crop phytotoxicity)	4 (70 to less than 90% of herbicidal effect and crop phytotoxicity)	4 (70 to less than 90% of herbicidal effect and crop phytotoxicity)	5 (90% or more of herbicidal effect and crop phytotoxicity)	4 (70 to less than 90% of herbicidal effect and crop phytotoxicity)	–	–	–	–
Cc1nn(C)c(O)c1C(=O)c1ccc(C(F)(F)F)n(C)c1=O [IV-231]	5 (90% or more of herbicidal effect and crop phytotoxicity)	5 (90% or more of herbicidal effect and crop phytotoxicity)	5 (90% or more of herbicidal effect and crop phytotoxicity)	3 (50 to less than 70% of herbicidal effect and crop phytotoxicity)	5 (90% or more of herbicidal effect and crop phytotoxicity)	5 (90% or more of herbicidal effect and crop phytotoxicity)	5 (90% or more of herbicidal effect and crop phytotoxicity)	–	–	–	–
O=C1CCCC(O)=C1C(=O)c1ccc(C(F)(F)F)n(-c2c(F)cccc2F)c1=O [I-104]	5 (90% or more of herbicidal effect and crop phytotoxicity)	5 (90% or more of herbicidal effect and crop phytotoxicity)	5 (90% or more of herbicidal effect and crop phytotoxicity)	–	–	–	–	5 (90% or more of herbicidal effect and crop phytotoxicity)	4 (70 to less than 90% of herbicidal effect and crop phytotoxicity)	5 (90% or more of herbicidal effect and crop phytotoxicity)	5 (90% or more of herbicidal effect and crop phytotoxicity)
